Results taken from patent US20240382629A1, “HETEROBIVALENT AND HOMOBIVALENT AGENTS TARGETING FIBROBLAST ACTIVATION PROTEIN ALPHA AND/OR PROSTATE-SPECIFIC MEMBRANE ANTIGEN” (The Johns Hopkins University, priority 2021, published 2024).
Where “and” joins values, the source holds several entries; their conditions need not be identical. Equal entries are not always repeated.

Tested on: U87 tumor
Assay: Biodistribution ([^18F]JHU1221823), carrier / specific activity study
Format: in vivo, mouse
Settings: individual mouse
From the text: Biodistribution of Representative Compounds

[1] = + 0.05 nmole carrier, 60 min post injection
[2] = + 0.1 nmole carrier, 60 min post injection
[3] = + 0.25 nmole carrier, 60 min post injection
[4] = NOD/SCID, U87 tumor, Carrier 350 (350 mCi/μmol), 60 min post injection
[5] = NOD/SCID, U87 tumor, Carrier 700, 60 min post injection

Structure (SMILES): N#C[C@@H]1CCCN1C(=O)CNC(=O)c1ccnc2ccc(OCCCNC(=O)CCOCCOCCOCCOCCNC(=O)[C@H](CCCCNC(=O)c3ccc([18F])nc3)NC(=O)CN3CCN(CC(=O)O)CCN(CC(=O)O)CCN(CC(=O)O)CC3)cc12 [[^18F]JHU1221823]
- Bladder % ID/g (+ 0.01 nmole carrier): 1.82 % ID/g and 2.18 % ID/g
- Blood % ID/g (+ 0.01 nmole carrier): 11.19 % ID/g and 11.39 % ID/g
- Brain % ID/g (+ 0.01 nmole carrier): 0.32 % ID/g and 0.28 % ID/g
- Fat % ID/g (+ 0.01 nmole carrier): 0.23 % ID/g and 0.44 % ID/g
- Femur % ID/g (+ 0.01 nmole carrier): 3.05 % ID/g and 4.01 % ID/g
- Heart % ID/g (+ 0.01 nmole carrier): 4.74 % ID/g and 4.50 % ID/g
- Kidney % ID/g (+ 0.01 nmole carrier): 2.82 % ID/g and 3.11 % ID/g
- Large intestine % ID/g (+ 0.01 nmole carrier): 1.60 % ID/g and 1.63 % ID/g
- Liver % ID/g (+ 0.01 nmole carrier): 2.78 % ID/g and 3.40 % ID/g
- Lung % ID/g (+ 0.01 nmole carrier): 6.08 % ID/g and 6.21 % ID/g
- Muscle % ID/g (+ 0.01 nmole carrier): 2.03 % ID/g and 1.73 % ID/g
- Pancreas % ID/g (+ 0.01 nmole carrier): 4.01 % ID/g and 4.14 % ID/g
- Salivary gland % ID/g (+ 0.01 nmole carrier): 7.47 % ID/g and 7.48 % ID/g
- Small intestine % ID/g (+ 0.01 nmole carrier): 2.22 % ID/g and 2.17 % ID/g
- Spleen % ID/g (+ 0.01 nmole carrier): 1.88 % ID/g and 2.13 % ID/g
- Stomach % ID/g (+ 0.01 nmole carrier): 1.33 % ID/g and 1.65 % ID/g
- Tumor % ID/g (+ 0.01 nmole carrier): 1.88 % ID/g and 2.86 % ID/g
- Bladder % ID/g [1]: 6.14 % ID/g and 2.43 % ID/g
- Blood % ID/g [1]: 7.42 % ID/g and 7.67 % ID/g
- Brain % ID/g [1]: 0.20 % ID/g and 0.21 % ID/g
- Fat % ID/g [1]: 0.94 % ID/g and 0.61 % ID/g
- Femur % ID/g [1]: 2.83 % ID/g and 3.67 % ID/g
- Heart % ID/g [1]: 3.03 % ID/g and 3.04 % ID/g
- Kidney % ID/g [1]: 2.02 % ID/g and 2.55 % ID/g
- Large intestine % ID/g [1]: 1.48 % ID/g and 1.58 % ID/g
- Liver % ID/g [1]: 1.92 % ID/g and 2.34 % ID/g
- Lung % ID/g [1]: 4.05 % ID/g and 4.16 % ID/g
- Muscle % ID/g [1]: 1.47 % ID/g and 2.20 % ID/g
- Pancreas % ID/g [1]: 4.01 % ID/g and 6.69 % ID/g
- Salivary gland % ID/g [1]: 10.22 % ID/g and 11.63 % ID/g
- Small intestine % ID/g [1]: 1.46 % ID/g and 2.18 % ID/g
- Spleen % ID/g [1]: 1.37 % ID/g and 1.62 % ID/g
- Stomach % ID/g [1]: 1.07 % ID/g and 1.48 % ID/g
- Tumor % ID/g [1]: 2.59 % ID/g and 4.26 % ID/g
- Bladder % ID/g [2]: 1.62 % ID/g and 1.87 % ID/g
- Blood % ID/g [2]: 3.88 % ID/g and 4.32 % ID/g
- Brain % ID/g [2]: 0.08 % ID/g and 0.17 % ID/g
- Fat % ID/g [2]: 2.17 % ID/g and 1.13 % ID/g
- Femur % ID/g [2]: 3.44 % ID/g and 4.00 % ID/g
- Heart % ID/g [2]: 1.80 % ID/g and 1.87 % ID/g
- Kidney % ID/g [2]: 2.03 % ID/g and 2.00 % ID/g
- Large intestine % ID/g [2]: 2.91 % ID/g and 1.79 % ID/g
- Liver % ID/g [2]: 1.01 % ID/g and 1.30 % ID/g
- Lung % ID/g [2]: 2.31 % ID/g and 2.83 % ID/g
- Muscle % ID/g [2]: 1.69 % ID/g and 2.25 % ID/g
- Pancreas % ID/g [2]: 4.18 % ID/g and 5.17 % ID/g
- Salivary gland % ID/g [2]: 7.28 % ID/g and 9.35 % ID/g
- Small intestine % ID/g [2]: 1.66 % ID/g and 1.63 % ID/g
- Spleen % ID/g [2]: 0.91 % ID/g and 1.01 % ID/g
- Stomach % ID/g [2]: 0.89 % ID/g and 1.12 % ID/g
- Tumor % ID/g [2]: 5.48 % ID/g and 4.73 % ID/g
- Bladder % ID/g [3]: 3.04 % ID/g and 1.98 % ID/g
- Blood % ID/g [3]: 1.76 % ID/g and 2.03 % ID/g
- Brain % ID/g [3]: 0.08 % ID/g
- Fat % ID/g [3]: 0.65 % ID/g and 0.37 % ID/g
- Femur % ID/g [3]: 3.97 % ID/g and 4.56 % ID/g
- Heart % ID/g [3]: 0.91 % ID/g
- Kidney % ID/g [3]: 1.70 % ID/g and 2.15 % ID/g
- Large intestine % ID/g [3]: 0.62 % ID/g and 0.68 % ID/g
- Liver % ID/g [3]: 0.73 % ID/g and 0.77 % ID/g
- Lung % ID/g [3]: 1.17 % ID/g and 1.57 % ID/g
- Muscle % ID/g [3]: 1.32 % ID/g and 1.19 % ID/g
- Pancreas % ID/g [3]: 2.11 % ID/g and 1.42 % ID/g
- Salivary gland % ID/g [3]: 3.78 % ID/g and 2.85 % ID/g
- Small intestine % ID/g [3]: 0.75 % ID/g and 1.07 % ID/g
- Spleen % ID/g [3]: 0.44 % ID/g and 0.48 % ID/g
- Stomach % ID/g [3]: 0.61 % ID/g and 0.77 % ID/g
- Tumor % ID/g [3]: 3.93 % ID/g and 3.11 % ID/g
- Bladder % ID/g [4]: 2.09 % ID/g and 6.57 % ID/g
- Blood % ID/g [4]: 3.99 % ID/g and 4.29 % ID/g
- Brain % ID/g [4]: 0.10 % ID/g and 0.09 % ID/g
- Fat % ID/g [4]: 0.89 % ID/g and 0.82 % ID/g
- Femur % ID/g [4]: 3.67 % ID/g and 3.18 % ID/g
- Heart % ID/g [4]: 2.25 % ID/g and 2.02 % ID/g
- Kidney % ID/g [4]: 2.00 % ID/g and 2.27 % ID/g
- Large intestine % ID/g [4]: 2.18 % ID/g and 1.97 % ID/g
- Liver % ID/g [4]: 1.71 % ID/g and 1.81 % ID/g
- Lung % ID/g [4]: 2.51 % ID/g and 2.98 % ID/g
- Muscle % ID/g [4]: 2.02 % ID/g and 2.04 % ID/g
- Pancreas % ID/g [4]: 10.66 % ID/g and 9.69 % ID/g
- Salivary gland % ID/g [4]: 9.63 % ID/g and 9.35 % ID/g
- Small intestine % ID/g [4]: 2.86 % ID/g and 1.91 % ID/g
- Spleen % ID/g [4]: 1.60 % ID/g and 1.01 % ID/g
- Stomach % ID/g [4]: 1.47 % ID/g
- Tumor % ID/g [4]: 8.22 % ID/g and 9.06 % ID/g
- Bladder % ID/g [5]: 8.20 % ID/g
- Blood % ID/g [5]: 5.82 % ID/g
- Brain % ID/g [5]: 0.16 % ID/g
- Fat % ID/g [5]: 0.90 % ID/g
- Femur % ID/g [5]: 2.41 % ID/g
- Heart % ID/g [5]: 3.48 % ID/g
- Kidney % ID/g [5]: 2.45 % ID/g
- Large intestine % ID/g [5]: 2.26 % ID/g
